In US9617304B2, “Pharmaceutical composition containing an endocytic motif and protein transduction domains for preventing or treating cancer” (Korea Research Institute Of Bioscience And Biotechnology, priority 2011, dated 2017):

Assays:
Tac/3S chimeric protein = assay: Endocytosis of Tac/3S chimeric protein in COS-7 cells after pretreatment with inhibitors; type: cell-based; details: for endocytosis of Tac/3S chimeric protein: COS-7, 100 μg/ml ConA, 80 μM Dynasore, 1 μM Go6976, 1 μM K252a, 1 μM Vinblastine, 30 minutes pretreatment
Description: Each of plasmid DNAs encoding Tac chimeric proteins illustrated in FIG. 2 was expressed in COS-7 cell line to induce endocytosis. To quantify endocytosis percentage, the following method was used. First, plasmid DNA was transfected into COS-7 cell line, and next day, cells were suspended in DMED supplemented with 10% FBS, and seeded onto an 8-well slide glass (Thermo, 154534) to 50% confluency. Next day, to block endocytosis, cells were transferred at 4° C. and left for 30 minutes. Anti-Tac (BD BIOSCIENCES, 347640) antibody was diluted in DMEM supplemented with 10% FBS at a ratio of 1:10, and treated at 4° C. for 30 minutes. The cells were washed with medium three times. To induce endocytosis again, the cells were transferred at 5% CO2 and 37° C., and left for different time periods. The cells were fixed in 4% paraformaldehyde for 45 minutes at room temperature. To detect cell surface anti-Tac antibody, anti-mouse IgG-ALEXA FLUOR 488 (INVITROGEN, A-11001) was diluted with PBS containing 3% normal goat serum (Vector, S-1000) at a ratio of 1:500, and treated at room temperature for 1 hour. Then, the cells were washed with PBST for 5 minutes three times. For permeablization and blocking, the cells were treated with PBST containing 3% normal goat serum at room temperature for 1 hour. Next, to detect intracellular Tac, anti-mouse IgG-ALEXA FLUOR 568 (INVITROGEN, A11061) was diluted with PBST containing 3% normal goat serum at a ratio of 1:500, and treated at room temperature for 1 hour. The cells were washed with PBST three times, and mounted in Mounting Medium with DAPI (Vector, H-1200). Next day, the sample was examined by fluorescence microscopy (Olympus IX2-UCB). For treatment of inhibitors, 100 μg/ml ConA (SIGMA, C0412), 80 μM Dynasore (SIGMA, D7693), 1 μM Go6976 (CALBIOCHEM, 365250), 1 μM K252a (INVITROGEN, PHZ1131) and 1 μM Vinblastine (SIGMA, V1377) were pretreated at 5% CO2 and 37° C. for 30 minutes, before endocytosis assay.

COS-7 cells = assay: Endocytosis of Tac chimeric proteins expressed in COS-7 cells, fluorescence microscopy; type: cell-based
Description: To quantify endocytosis percentage, the following method was used. First, plasmid DNA was transfected into COS-7 cell line, and next day, cells were suspended in DMED supplemented with 10% FBS, and seeded onto an 8-well slide glass (Thermo, 154534) to 50% confluency. Next day, to block endocytosis, cells were transferred at 4° C. and left for 30 minutes. Anti-Tac (BD BIOSCIENCES, 347640) antibody was diluted in DMEM supplemented with 10% FBS at a ratio of 1:10, and treated at 4° C. for 30 minutes. The cells were washed with medium three times. To induce endocytosis again, the cells were transferred at 5% CO2 and 37° C., and left for different time periods. The cells were fixed in 4% paraformaldehyde for 45 minutes at room temperature. […] Next day, the sample was examined by fluorescence microscopy (Olympus IX2-UCB). […] To quantify endocytosis of Tac chimeric proteins expressed in COS-7 cells over time, the following Equation was used. […] As such, green fluorescence intensity indicates the amount of cell surface Tac, and red fluorescence intensity signifies those of endocytosed Tac plus partial cell surface Tac. […] Partially detected surface Tac by anti-mouse IgG-ALEXA FLUOR 568 was measured by comparing fluorescence intensity between green and red at 0 min in which no endocytosis occurred. Red fluorescence intensity was 0.429-fold or green fluorescence intensity at 0 min, which was defined as α. […]

Molecule	endocytosis of Tac/3S chimeric protein (Tac/3S chimeric protein)	transportation of Tac/3S protein to the perinuclear region (Tac/3S chimeric protein; COS-7, 1 μM Vinblastine)	subcellular localization (colocalization test) (COS-7 cells)
COC(=O)[C@@]1(O)C[C@H]2O[C@]1(C)n1c3ccccc3c3c4c(c5c6ccccc6n2c5c31)C(=O)NC4 [K252a]	not inhibited		
CC[C@]1(O)C[C@@H]2CN(CCc3c([nH]c4ccccc34)[C@@](C(=O)OC)(c3cc4c(cc3OC)N(C)[C@H]3[C@@](O)(C(=O)OC)[C@H](OC(C)=O)[C@]5(CC)C=CCN6CC[C@]43[C@@H]65)C2)C1 [Vinblastine]	not inhibited	blocked	
Cn1c2ccccc2c2c3c(c4c5ccccc5n(CCC#N)c4c21)CNC3=O [Go6976]	inhibited		
Concannavalin A [ConA]	inhibited		
O=C(N/N=C/c1ccc(O)c(O)c1)c1cc2ccccc2cc1O [Dynasore]	inhibited		
Tac/3S: fusion protein of Tac and 3S polypeptide (protein) ELCDDDPPEIPHATFKAMAYKEGTMLNCECKRGFRRIKSGSLYMLCTGNSSHSSWDNQCQCTSSATRNTTKQVTPQPEEQKERKTTEMQSPMQPVDQASLPGHCREPPPWENEATERIYHFVVGQMVYYQCVQGYRALHRGPAESVCKMTHGKTRWTQPQLICTGEMETSQFPGEEKPQASPEGRPESETSCLVTTTDFQIQTEMAATMETSIFTTEYQKCVAPYPSLLSSEDNA			partially merged with ER tracker
